The values below are quoted from earlier work in patent US20230120480A1, “METHODS FOR REMOVING CONTAMINANTS FROM PLANT-DERIVED PHARMACEUTICALS” (priority 2021, published 2023).

Settings in the first data set: not given
Regarding `CCCCCc1cc(O)c2c(c1)OC(C)(C)[C@H]1CCC(C)=C[C@@H]21` (relative stereo) [Delta-9-cis-tetrahydrocannabinol], the “Water Soluble?” value is given as “No”.
On to `CCCCCc1cc(O)c2c(c1)OC(C)(C)C1=C2CC(C)(O)C(O)C1` (centres unmarked) [8,9-Dihydroxy-delta-6a-tetrahydrocannabinol], for which the “Water Soluble?” value is given as “No”.
For the compound `CCCCCc1cc(O)c2c(c1)OC(C)(C)C1=C2C(OCC)C(C)(O)CC1` (centres unmarked) [10-Ethoxy-9-hydroxy-delta-6a-tetrahydrocannabinol], the “Water Soluble?” value is “No”.
Turning to `CCCCCc1cc(O)c2c(c1)OC(C)(C)C1=C2C(=O)C(C)CC1` (centres unmarked) [10-Oxo-delta-6a-tetrahydrocannabinol], the “Water Soluble?” value was “No”.
Regarding `CCCCCc1cc(O)c2c(c1)OC(C)(C)[C@H](CCC(C)=O)C2=O` [Cannabichromanon], the “Water Soluble?” value is listed as “No”.
For `CCCCCc1cc(O)c2c(c1)OC(C)(CCC=C(C)C)C=C2` (centres unmarked) [Cannabichromene], the “Water Soluble?” value is recorded as “No”.
In the case of `CCCCCc1cc2c(c(O)c1C(=O)O)C=CC(C)(CCC=C(C)C)O2` (centres unmarked) [Cannabichromenic acid], the “Water Soluble?” value was “Yes”.
On to `CCCc1cc(O)c2c(c1)OC(C)(CCC=C(C)C)C=C2` (centres unmarked) [Cannabichromevarin], for which the “Water Soluble?” value is reported as “No”.
Regarding `CCCc1cc2c(c(O)c1C(=O)O)C=CC(C)(CCC=C(C)C)O2` (centres unmarked) [Cannabichromevarinic acid], the “Water Soluble?” value is “No”.
Turning to `CCCCCc1cc(O)c2c(c1)OC1(C)CCC3C1C2C3(C)C` (centres unmarked) [Cannabicyclol], the “Water Soluble?” value was “No”.
Take `CCCCCc1cc2c(c(O)c1C(=O)O)C1C3C(CCC3(C)O2)C1(C)C` (centres unmarked) [Cannabicyclolic acid]: the “Water Soluble?” value is on record as “Yes”.
Take `CCCc1cc(O)c2c(c1)OC1(C)CCC3C1C2C3(C)C` (centres unmarked) [Cannabicyclovarin]: the “Water Soluble?” value is reported as “No”.
As to `C=C(C)[C@@H]1CCC(C)=C[C@H]1c1c(O)cc(CCCCC)cc1OC` [Cannabidiol monomethylether], the “Water Soluble?” value was “No”.
For the compound `C=C(C)[C@@H]1CCC(C)=C[C@H]1c1c(O)cc(CCCCC)cc1O` [Cannabidiol, reference compound], the “Water Soluble?” value is “No”.
With `C=C(C)[C@@H]1CCC(C)=C[C@H]1c1c(O)cc(CCCCC)c(C(=O)O)c1O` [Cannabidiolic acid], the “Water Soluble?” value is listed as “No”.
For `C=C(C)[C@@H]1CCC(C)=C[C@H]1c1c(O)cc(C)cc1O` [Cannabidiorcol], the “Water Soluble?” value is “No”.
On to `C=C(C)[C@@H]1CCC(C)=C[C@H]1c1c(O)cc(CCC)cc1O` [Cannabidivarin], for which the “Water Soluble?” value is given as “No”.
On to `C=C(C)[C@@H]1CCC(C)=C[C@H]1c1c(O)cc(CCC)c(C(=O)O)c1O` [Cannabidivarinic acid], for which the “Water Soluble?” value is recorded as “Yes”.
Regarding `C=C(C)[C@@H]1CC[C@](C)(O)[C@H]2Oc3c(C(=O)O)c(CCCCC)cc(O)c3[C@@H]12` [Cannabielsoic acid B], the “Water Soluble?” value is “No”.
For `C=C(C)[C@@H]1CC[C@](C)(O)[C@H]2Oc3cc(CCCCC)c(C(=O)O)c(O)c3[C@@H]12` [Cannabielsoin acid A], the “Water Soluble?” value is “No”.
In the case of `C=C(C)[C@@H]1CC[C@](C)(O)[C@H]2Oc3cc(CCCCC)cc(O)c3[C@@H]12` [Cannabielsoin], the “Water Soluble?” value is reported as “No”.
With `CCCCCc1cc(O)c(C/C=C(\C)CCC=C(C)C)c(OC)c1` [Cannabigerol monomethylether], the “Water Soluble?” value is on record as “No”.
For the compound `CCCCCc1cc(O)c(C/C=C(\C)CCC=C(C)C)c(O)c1` [Cannabigerol], the “Water Soluble?” value was “No”.
Regarding `CCCCCc1cc(OC)c(C/C=C(\C)CCC=C(C)C)c(O)c1C(=O)O` [Cannabigerolic acid monomethylether], the “Water Soluble?” value is “Yes”.
On to `CCCCCc1cc(O)c(C/C=C(\C)CCC=C(C)C)c(O)c1C(=O)O` [Cannabigerolic acid], for which the “Water Soluble?” value is listed as “Yes”.

For another data set the following is noted: permissible limit of the pesticide in Cannabis, State of Oregon.
With `Cc1c(COC(=O)[C@@H]2[C@H](/C=C(\Cl)C(F)(F)F)C2(C)C)cccc1-c1ccccc1` (racemic) [Bifenthrin], the “Action Level (ppm)” value was 0.2 ppm.
As to `COP(=O)(NC(C)=O)SC` (centres unmarked) [Acephate], the “Action Level (ppm)” value is given as 0.4 ppm.
Consider `CCCCCCCCCCCCC1=C(OC(C)=O)C(=O)c2ccccc2C1=O` [Acequinocyl], for which the “Action Level (ppm)” value is 2 ppm.
Regarding `C/C(=N\C#N)N(C)Cc1ccc(Cl)nc1` [Acetamiprid], the “Action Level (ppm)” value is 0.2 ppm.
For `CNC(=O)O/N=C/C(C)(C)SC` [Aldicarb], the “Action Level (ppm)” value is 0.4 ppm.
Regarding `CO/C=C(/C(=O)OC)c1ccccc1Oc1cc(Oc2ccccc2C#N)ncn1` [Azoxystrobin], the “Action Level (ppm)” value is recorded as 0.2 ppm.
Consider `COc1ccc(-c2ccccc2)cc1NNC(=O)OC(C)C` [Bifenazate], for which the “Action Level (ppm)” value is recorded as 0.2 ppm.
Take `O=C(Nc1ccccc1-c1ccc(Cl)cc1)c1cccnc1Cl` [Boscalid]: the “Action Level (ppm)” value is listed as 0.4 ppm.
Turning to `CNC(=O)Oc1cccc2ccccc12` [Carbaryl], the “Action Level (ppm)” value is 0.2 ppm.
`CNC(=O)Oc1cccc2c1OC(C)(C)C2` [Carbofuran]: the “Action Level (ppm)” value is recorded as 0.2 ppm.
With `CNC(=O)c1cc(Cl)cc(C)c1NC(=O)c1cc(Br)nn1-c1ncccc1Cl` [Chlorantranili- prole], the “Action Level (ppm)” value is on record as 0.2 ppm.
`CCOCn1c(-c2ccc(Cl)cc2)c(C#N)c(Br)c1C(F)(F)F` [Chlorfenapyr]: the “Action Level (ppm)” value is 1 ppm.
In the case of `CC1(C)C(C=C(Cl)Cl)C1C(=O)OC(C#N)c1ccc(F)c(Oc2ccccc2)c1` (centres unmarked) [Cyfluthrin], the “Action Level (ppm)” value is 1 ppm.
As for `COP(=O)(OC)OC=C(Cl)Cl` [DDVP (Dichlorvos)], the “Action Level (ppm)” value is given as 0.1 ppm.
Regarding `CCOP(=S)(OCC)Oc1cc(C)nc(C(C)C)n1` [Diazinon], the “Action Level (ppm)” value is 0.2 ppm.
As for `CNC(=O)CSP(=S)(OC)OC` [Dimethoate], the “Action Level (ppm)” value is recorded as 0.2 ppm.
Consider `CCOc1ccc(C(C)(C)COCc2cccc(Oc3ccccc3)c2)cc1` [Etofenprox], for which the “Action Level (ppm)” value was 0.4 ppm.
Take `CCOc1cc(C(C)(C)C)ccc1C1COC(c2c(F)cccc2F)=N1` (centres unmarked) [Etoxazole]: the “Action Level (ppm)” value was 0.2 ppm.
`CCOC(=O)NCCOc1ccc(Oc2ccccc2)cc1` [Fenoxycarb]: the “Action Level (ppm)” value was 0.2 ppm.
With `Cc1nn(C)c(Oc2ccccc2)c1/C=N/OCc1ccc(C(=O)OC(C)(C)C)cc1` [Fenpyroximate], the “Action Level (ppm)” value is 0.4 ppm.
Regarding `N#Cc1nn(-c2c(Cl)cc(C(F)(F)F)cc2Cl)c(N)c1[S+]([O-])C(F)(F)F` (centres unmarked) [Fipronil], the “Action Level (ppm)” value was 0.4 ppm.
With `N#CCNC(=O)c1cnccc1C(F)(F)F` [Flonicamid], the “Action Level (ppm)” value was 1 ppm.
Take `N#Cc1c[nH]cc1-c1cccc2c1OC(F)(F)O2` [Fludioxonil]: the “Action Level (ppm)” value is 0.4 ppm.
For the compound `CC1C(c2ccc(Cl)cc2)SC(=O)N1C(=O)NC1CCCCC1` (centres unmarked) [Hexythiazox], the “Action Level (ppm)” value is recorded as 1 ppm.
For the compound `C=CCOC(Cn1ccnc1)c1ccc(Cl)cc1Cl` (centres unmarked) [Imazalil], the “Action Level (ppm)” value is 0.2 ppm.
As for `O=[N+]([O-])NC1=NCCN1Cc1ccc(Cl)nc1` [Imidacloprid], the “Action Level (ppm)” value is recorded as 0.4 ppm.
On to `CO/N=C(/C(=O)OC)c1ccccc1COc1ccccc1C` [Kresoxim- methyl], for which the “Action Level (ppm)” value is 0.4 ppm.
Consider `CCCCC(CC)CN1C(=O)C2C3C=CC(C3)C2C1=O` (centres unmarked) [MGK-264], for which the “Action Level (ppm)” value was 0.2 ppm.
Take `CCOC(=O)CC(SP(=S)(OC)OC)C(=O)OCC` (centres unmarked) [Malathion]: the “Action Level (ppm)” value is reported as 0.2 ppm.
Consider `COCC(=O)N(c1c(C)cccc1C)C(C)C(=O)OC` (centres unmarked) [Metalaxyl], for which the “Action Level (ppm)” value is recorded as 0.2 ppm.
With `CNC(=O)Oc1cc(C)c(SC)c(C)c1` [Methiocarb], the “Action Level (ppm)” value was 0.2 ppm.
As to `CNC(=O)ON=C(C)SC` [Methomyl], the “Action Level (ppm)” value is recorded as 0.4 ppm.
In the case of `CCCCC(C#N)(Cn1cncn1)c1ccc(Cl)cc1` (centres unmarked) [Myclobutanil], the “Action Level (ppm)” value is 0.2 ppm.
Take `COP(=O)(OC)OC(Br)C(Cl)(Cl)Br` (centres unmarked) [Naled]: the “Action Level (ppm)” value is given as 0.5 ppm.
Take `CNC(=O)O/N=C(\SC)C(=O)N(C)C` [Oxamyl]: the “Action Level (ppm)” value is 1 ppm.
On to `CC(C)(C)C(O)C(Cc1ccc(Cl)cc1)n1cncn1` (centres unmarked) [Paclobutrazol], for which the “Action Level (ppm)” value is on record as 0.4 ppm.
Take `CC1(C)C(C=C(Cl)Cl)C1C(=O)OCc1cccc(Oc2ccccc2)c1` (centres unmarked) [Permethrins]: the “Action Level (ppm)” value is 0.2 ppm.
Turning to `COP(=S)(OC)SCN1C(=O)c2ccccc2C1=O` [Phosmet], the “Action Level (ppm)” value is 0.2 ppm.
Turning to `C#CCC1=C(C)C(OC(=O)[C@@H]2[C@@H](C=C(C)C)C2(C)C)CC1=O` (some centres unmarked) [Prallethrin], the “Action Level (ppm)” value was 0.2 ppm.
In the case of `CCCC1COC(Cn2cncn2)(c2ccc(Cl)cc2Cl)O1` (centres unmarked) [Propiconazole], the “Action Level (ppm)” value is 0.4 ppm.
Take `CNC(=O)Oc1ccccc1OC(C)C` [Propoxur]: the “Action Level (ppm)” value is 0.2 ppm.
With `CC(C)(C)c1ccc(CSc2cnn(C(C)(C)C)c(=O)c2Cl)cc1` [Pyridaben], the “Action Level (ppm)” value is 0.2 ppm.
In the case of `Cc1cc(C)c(C2=C(OC(=O)CC(C)(C)C)C3(CCCC3)OC2=O)c(C)c1` [Spiromesifen], the “Action Level (ppm)” value is 0.2 ppm.
Turning to `CCOC(=O)OC1=C(c2cc(C)ccc2C)C(=O)N[C@]12CC[C@@H](OC)CC2` [Spirotetramat], the “Action Level (ppm)” value was 0.2 ppm.
With `CCCN(CC)CC1COC2(CCC(C(C)(C)C)CC2)O1` (centres unmarked) [Spiroxamine], the “Action Level (ppm)” value was 0.4 ppm.
`CC(C)(C)C(O)(CCc1ccc(Cl)cc1)Cn1cncn1` (centres unmarked) [Tebuconazole]: the “Action Level (ppm)” value is given as 0.4 ppm.
For the compound `N#C/N=C1\SCCN1Cc1ccc(Cl)nc1` [Thiacloprid], the “Action Level (ppm)” value is recorded as 0.2 ppm.
As for `CN1COCN(Cc2cnc(Cl)s2)/C1=N\[N+](=O)[O-]` [Thiamethoxam], the “Action Level (ppm)” value is on record as 0.2 ppm.
As for `CO/N=C(/C(=O)OC)c1ccccc1CO/N=C(\C)c1cccc(C(F)(F)F)c1` [Trifloxystrobin], the “Action Level (ppm)” value is listed as 0.2 ppm.
As for Abamectin, the “Action Level (ppm)” value is on record as 0.5 ppm.
With Pyrethrins, the “Action Level (ppm)” value is recorded as 1 ppm.
Take Spinosad: the “Action Level (ppm)” value is 0.2 ppm.
